Source: ChEMBL document CHEMBL4840357, “Functionalized Dioxonaphthoimidazoliums: A Redox Cycling Chemotype with Potent Bactericidal Activities against Mycobacterium tuberculosis” (J Med Chem, 2021)
Converted amounts (≈) assume the structure as drawn. The source made the active and inactive calls. The rule behind the calls is not given here.

How the values were obtained:
[1] = test system: Mycobacterium tuberculosis; assay type: functional; details: H37Rv ATCC 27294, 168 h, time 7 day
[2] = test system: Mycobacterium tuberculosis; assay type: functional; details: H37Rv ATCC 27294, 168 h, time 7 day, read-out: MBC99.9
[3] = Selectivity index, ratio of IC50 for African green monkey Vero cells to MIC50 for Mycobacterium tuberculosis H37Rv ATCC 27294; assay type: toxicity; details: read-out: Selectivity Index
[4] = test system: Mycobacterium tuberculosis; assay type: functional, organism-based; details: H37Rv ATCC 27294, time 7.0 day
Vero = assay: Cytotoxicity against African green monkey Vero cells assessed as reduction in cell viability incubated for 48 hrs by CellTiter 96 aqueous one solution reagent based assay; details: Chlorocebus sabaeus
[5] = test system: Mycolicibacterium smegmatis; assay: Induction of NADH oxidation in Mycobacterium smegmatis mc24517 inverted membrane vesicles; assay type: functional, Membrane vesicle
[6] = Clearance in Swiss albino mouse at 50 mg/kg, po or 1 mg/kg, iv measured upto 24 hrs by HPLC-LCMS analysis; assay type: ADME, organism-based; details: in vivo
[7] = Mutagenicity in Salmonella typhimurium TA100 at 1.5 to 64 ug in presence of S9 fraction by ames test; assay type: toxicity, subcellular, Salmonella enterica subsp. enterica serovar Typhimurium; details: dose 1.5-64 µg
[8] = Permeability of compound incubated for 16 hrs by PAMPA; assay type: ADME
[9] = test system: Mycolicibacterium smegmatis; assay: Induction of hydrogen […] production in Mycobacterium smegmatis mc24517 inverted membrane vesicles; assay type: functional
[10] = Mutagenicity in Salmonella typhimurium TA98 at 1.5 to 64 ug in absence of S9 fraction by ames test; assay type: toxicity, Salmonella enterica subsp. enterica serovar Typhimurium; details: in vivo; dose 1.5-64 µg
[11] = Half life in Swiss albino mouse at 50 mg/kg, po or 1 mg/kg, iv measured upto 24 hrs by HPLC-LCMS analysis; assay type: ADME, organism-based; details: in vivo
[12] = Metabolic stability in rat microsomes assessed as half life preincubated for 5 mins followed by NADPH addition and measured upto 45 mins by LC-MS/MS analysis; assay type: ADME, Microsome; details: time <=50 min
[13] = test system: Mycolicibacterium smegmatis; assay: Induction of pH gradient dissipation in Mycobacterium smegmatis mc24517 inverted membrane vesicles at 1 to 2 uM; assay type: functional; details: Membrane vesicle, dose 1-2 µM
[14] = Volume of distribution in Swiss albino mouse at 50 mg/kg, po or 1 mg/kg, iv measured upto 24 hrs by HPLC-LCMS analysis; assay type: ADME, organism-based; details: in vivo
[15] = Oral bioavailability in Swiss albino mouse at 50 mg/kg measured upto 24 hrs by HPLC-LCMS analysis; assay type: ADME, organism-based; details: in vivo
[16] = Mutagenicity in Salmonella typhimurium TA98 at 1.5 to 64 ug in presence of S9 fraction by ames test; assay type: toxicity, subcellular, Salmonella enterica subsp. enterica serovar Typhimurium; details: dose 1.5-64 µg
[17] = test system: Mycolicibacterium smegmatis; assay: Induction of oxygen consumption in Mycobacterium smegmatis mc24517 inverted membrane vesicles; assay type: functional
[18] = Mutagenicity in Salmonella typhimurium TA100 at 1.5 to 64 ug in absence of S9 fraction by ames test; assay type: toxicity, Salmonella enterica subsp. enterica serovar Typhimurium; details: in vivo; dose 1.5-64 µg
[19] = Aqueous solubility of compound at pH 7.4; assay type: physicochemical; details: buffer

Structure (SMILES) | MIC50 [1] | MIC90 [1] | MBC [2] | selectivity ratio [3] | IC50 (Vero) | also measured
CCCCCCCn1c2c([n+](CCCCC)c1C)C(=O)c1ccccc1C2=O.[Br-] | 0.77 µM | 1.2 µM | 6.3 µM | 26 | 20 µM | Activity [4]: Active
CCCCCC[n+]1c2c(n(CC(C)C)c1C)C(=O)c1ccccc1C2=O | 4 µM | 6 µM | – | – | – | –
CC(C)/N=c1\cc2n(-c3ccc(Cl)cc3)c3ccccc3nc-2cc1Nc1ccc(Cl)cc1 [CLOFAZIMINE] | 0.2 µM (≈ 0.0947 µg/mL) | 0.8 µM (≈ 0.379 µg/mL) | – | – | – | –
CCCCCCCCn1c2c([n+](C3CCC4(CCCCC4)CC3)c1C)C(=O)c1ccccc1C2=O | 0.3 µM | 0.4 µM | 1.2 µM | 17 | 5 µM | –
NNC(=O)c1ccncc1 [ISONIAZID] | 1.6 µM (≈ 0.219 µg/mL) | 3.2 µM (≈ 0.439 µg/mL) | – | – | – | –
CCCCCCn1c2c([n+](C3CCC4(CCCCC4)CC3)c1C)C(=O)c1ccccc1C2=O | 0.3 µM | 0.4 µM | 1.6 µM | 21 | 6.3 µM | –
CCCCCCn1c2c([n+](CCCCCC)c1C)C(=O)c1ccccc1C2=O | 0.67 µM | 1.5 µM | 6.3 µM | 21 | 14 µM | –
CCCCCCCCn1c2c([n+](CCCC)c1C)C(=O)c1ccccc1C2=O.[Br-] | 0.82 µM | 1.5 µM | 6.3 µM | 29 | 24 µM | EC50 [5]: 0.25 µM; clearance [6]: 2.28 L/h/kg; Activity [7]: Non-Toxic; permeability [8]: Not Active; fold change (FC) [9]: 4; Activity [10]: Non-Toxic; half-life [11]: 7 h; half-life [12]: 0.333 h; Activity [13]: Active; Vd [14]: 27 L/kg; bioavailability [15]: 1%; Activity [16]: Non-Toxic; fold change (FC) [17]: 7; Activity [4]: Active; Activity [18]: Non-Toxic; solubility [19]: 118 µM
CCCCn1c2c([n+](C3CCC4(CCCCC4)CC3)c1C)C(=O)c1ccccc1C2=O.[Br-] | 0.28 µM | 0.53 µM | 1.6 µM | 54 | 15 µM | clearance [6]: 2.28 L/h/kg; Activity [7]: Non-Toxic; permeability [8]: Not Active; Activity [10]: Non-Toxic; half-life [11]: 7 h; half-life [12]: 0.333 h; Vd [14]: 27 L/kg; bioavailability [15]: 1%; Activity [16]: Non-Toxic; Activity [18]: Non-Toxic; solubility [19]: 118 µM
CCCCCCCC[n+]1c2c(n(CC(C)C)c1C)C(=O)c1ccccc1C2=O | 2 µM | 3 µM | – | – | – | –
